What was measured:
Assay type in all cases: in vivo
[1] = test system: flank organ of mature male Syrian golden hamsters; experiment: Topical antiandrogenic activity in mature male hamsters, both flank organs medicated (Table I); conditions: mean, n=8
Source text: (§1) Each flank organ of mature male Syrian golden hamsters having a mean initial body weight of 105 g. was medicated topically with the compound of Formula I dissolved in ethanol (5 microliters) for twenty-one days. Flank organ hair was clipped three times per week to facilitate application. On the day following the last medication the hamsters were killed with an overdose of sodium pentobarbital. The flank organ parameters and the weights of seminal vesicles, adrenals and thymus glands were determined. Flank organ diameter was measured parallel to the breadth of the hamster with vernier calipers. Wet weights were obtained on flank organs excised around the periphery of the pigmented area. The topical activity of the compound of Formula I was also compared with that of 17β-hydroxy-17α-propylandrost-4-en-3-one, an antiandrogen, and hydrocortisone. In this experiment the right flank organ was treated with the test compound while vehicle-treated left flank organ served as control. […] In addition, the individual characteristics of the flank organ, elevation (thickness relative to adjacent skin), area, hair pigment, skin pigment and hair growth were all scored separately on a scale of 0 to 4.

[2] = test system: castrated immature male Syrian golden hamsters; experiment: Systemic antiandrogenic and glucocorticoid activity, subcutaneous, with testosterone propionate (Table IV); conditions: mean, n=8
Experimental: A solution of the compound of Formula I in cottonseed oil was administered subcutaneously at 1 ml./kg. to castrated immature male Syrian golden hamsters having a mean initial body weight of 79 g. for 14 consecutive days concurrently with testosterone propionate. On the day following the last medication the hamsters were killed, the flank organ parameters were determined and the weights of seminal vesicles, adrenals and thymus glands were obtained.

[3] = test system: flank organ of mature male Syrian golden hamsters; experiment: Topical comparison in mature male hamsters, right flank organ treated, left flank organ vehicle (Tables II, III); conditions: for Flank organ Diameter, RFO / Flank organ Weight, RFO / Flank organ Development, RFO (median score): treated right flank organ; for Flank organ Diameter, RFO / Flank organ Weight, RFO: mean; for Flank organ Diameter, RFO / Flank organ Weight, RFO / Flank organ Development, RFO (median score) / Flank Organ (Mean Score) Area / Flank Organ (Mean Score) Elevation / Flank Organ (Mean Score) Hair Growth / Flank Organ (Mean Score) Hair Pigmentation / Flank Organ (Mean Score) Skin Pigmentation: n=7; for Flank organ Development, RFO (median score): scale 0 to 4 (0 barely visible, 4 as in mature male); for Flank Organ (Mean Score) Area / Flank Organ (Mean Score) Elevation / Flank Organ (Mean Score) Hair Growth / Flank Organ (Mean Score) Hair Pigmentation / Flank Organ (Mean Score) Skin Pigmentation: RFO, scale 0 to 4
Source text: as §1

[4] = test system: hair growth on backs of male adrenalectomized Sprague-Dawley rats; experiment: Reduction in hair growth in male adrenalectomized rats, topical (Table VII); conditions: 0.1% solution topical
Source text: Hair was clipped from the backs of male Sprague-Dawley rats, having a mean body weight of 300 g., three weeks after adrenalectomy. The clipped area (4 cm.×4 cm.) was medicated with approximately 500 microliters of 0.1% solution of the compound of Formula I, or hydrocortisone or 500 microliters of ethanol alone for a two-week pretreatment period. The clipped area was then depilated and the medication with either solution or ethanol alone was continued for 4 weeks. The density of hair growth was scored visually at weekly intervals and at termination of the experiment on a scale of 0 to 4 (0, no hair growth; 4, complete hair regrowth). Skinfold thickness was also measured using a micrometer at the end of the experiment, which was conducted blind.

[5] = 1 μg/flank organ/day topical for 21 days
[6] = 5 μg/flank organ/day topical for 21 days
[7] = 25 μg/flank organ/day topical for 21 days
[8] = 125 μg/flank organ/day topical for 21 days
[9] = 2.5 mg/kg/day sc for 14 days with testosterone propionate 0.4 mg/kg/day
[10] = 5 mg/kg/day sc for 14 days with testosterone propionate 0.4 mg/kg/day
[11] = after depilation, median score, scale 0 to 4, n=12

CC#C[C@]1(O)CC[C@H]2[C@@H]3C[C@H](C)C4=Cc5[nH]ncc5C[C@]4(C)[C@H]3CC[C@@]21C [Compound of Formula I, 17β-Hydroxy-6α-methyl-17α-propynyl-4-androsteno[3,2-c]-pyrazole]
Flank Organ Diameter [1, 5]: 5.7 mm
Flank Organ Wet Weight [1, 5]: 46.5 mg
Organ Weights: Adrenal [1, 5]: 26.7 mg
Organ Weights: Seminal Vesicles [1, 5]: 288.3 mg
Organ Weights: Thymus [1, 5]: 57.1 mg
Flank Organ Diameter [1, 6]: 4.8 mm
Flank Organ Wet Weight [1, 6]: 36.4 mg
Organ Weights: Adrenal [1, 6]: 25.5 mg
Organ Weights: Seminal Vesicles [1, 6]: 277.6 mg
Organ Weights: Thymus [1, 6]: 53.2 mg
Flank Organ Diameter [1, 7]: 4.7 mm
Flank Organ Wet Weight [1, 7]: 33.4 mg
Organ Weights: Adrenal [1, 7]: 25.5 mg
Organ Weights: Seminal Vesicles [1, 7]: 270.3 mg
Organ Weights: Thymus [1, 7]: 53.7 mg
Flank Organ Diameter [1, 8]: 4.8 mm
Flank Organ Wet Weight [1, 8]: 30.7 mg
Organ Weights: Adrenal [1, 8]: 21.0 mg
Organ Weights: Seminal Vesicles [1, 8]: 267.3 mg
Organ Weights: Thymus [1, 8]: 52.8 mg
Final Body Weight [2, 9]: 99
Flank Organ Diameter [2, 9]: 4.0 mm
Flank Organ Wet Weight [2, 9]: 19.5 mg
Organ Weights: Adrenals [2, 9]: 12.7 mg
Organ Weights: Seminal Vesicles [2, 9]: 135 mg
Organ Weights: Thymus [2, 9]: 28 mg
Final Body Weight [2, 10]: 93
Flank Organ Diameter [2, 10]: 3.6 mm
Flank Organ Wet Weight [2, 10]: 15.0 mg
Organ Weights: Adrenals [2, 10]: 12.3 mg
Organ Weights: Seminal Vesicles [2, 10]: 107 mg
Organ Weights: Thymus [2, 10]: 14 mg
Flank organ Diameter, RFO ([3]; 5 μg/RFO for 21 days): 5.2 mm
Flank organ Weight, RFO ([3]; 5 μg/RFO for 21 days): 35.9 mg
Flank organ Development, RFO (median score) ([3]; 5 μg/RFO for 21 days): 3
Flank organ Diameter, RFO ([3]; 50 μg/RFO for 21 days): 5.0 mm
Flank organ Weight, RFO ([3]; 50 μg/RFO for 21 days): 33.2 mg
Flank organ Development, RFO (median score) ([3]; 50 μg/RFO for 21 days): 3
Dose response of flank organ inhibition ([3]; 5 and 50 μg/RFO topical for 21 days): flat dose response curve
Flank Organ (Mean Score) Area ([3]; 5 μg/flank organ for 21 days): 3.3
Flank Organ (Mean Score) Elevation ([3]; 5 μg/flank organ for 21 days): 3.1
Flank Organ (Mean Score) Hair Growth ([3]; 5 μg/flank organ for 21 days): 1.4
Flank Organ (Mean Score) Hair Pigmentation ([3]; 5 μg/flank organ for 21 days): 3.6
Flank Organ (Mean Score) Skin Pigmentation ([3]; 5 μg/flank organ for 21 days): 3.3
Flank Organ (Mean Score) Area ([3]; 50 μg/flank organ for 21 days): 3.0
Flank Organ (Mean Score) Elevation ([3]; 50 μg/flank organ for 21 days): 2.6
Flank Organ (Mean Score) Hair Growth ([3]; 50 μg/flank organ for 21 days): 0
Flank Organ (Mean Score) Hair Pigmentation ([3]; 50 μg/flank organ for 21 days): 3.0
Flank Organ (Mean Score) Skin Pigmentation ([3]; 50 μg/flank organ for 21 days): 3.1
Hair Growth Score, Treatment week 1 [4, 11]: 0
Hair Growth Score, Treatment week 2 [4, 11]: 0
Hair Growth Score, Treatment week 3 [4, 11]: .5
Hair Growth Score, Treatment week 4 [4, 11]: 1
Skinfold Thickness, Treatment week 4 ([4]; mean, n=12, vehicle 2.51): 1.82 mm
Hair Growth Score, Pretreatment week 1 ([4]; median score, scale 0 to 4 (0 no hair growth, 4 complete regrowth), n=12): 1
Hair Growth Score, Pretreatment week 2 ([4]; median score, scale 0 to 4, n=12): 2.5
Skin thickness compared with hydrocortisone-treated rats ([4]; p<0.02): thinner

Source: patent US4269831A, “Topical dermatological method of use of an androstenopyrazole” (priority 1979, dated 1981)
